# Source: patent US9505798B2, “Steroid compounds as RORyt modulators and uses thereof” (New York University, priority 2010, dated 2016)
# Where two headings read alike, the source gives them in different places.
# Columns and labels:
# [1] = test system: RORγ LBD mutants (L290, C318, A494); assay: Random mutagenesis of RORγ LBD, digoxin resistance in S2 reporter; type: cell-based, mouse; details: mutations at L290, C318 and A494
# [2] = target: T1, C. elegans Daf12 (Caenorhabditis elegans, UniProt G5EFF5); assay: S2 cell Daf12 reporter; type: cell-based
# T1 construct: C. elegans Daf12 (amino acids 184 to end); expressed in transfected cells; host or cells: Drosophila S2 cells
# Excerpt: The Drosophila S2 cell line was originally purchased from Invitrogen and was maintained in Schneider's Drosophila medium supplemented with 10% heat-inactivated bovine fetal calf serum and 1× antibiotic-antimycotic solution (Invitrogen). The Gal4 DNA binding domain (G4 DBD), corresponding to amino acids 1 through 147 of the Gal4 protein, was PCR amplified to make the fusion construct with murine RORγ (amino acids 79 to the carboxyl terminal end) lacking its DNA binding domain. The resulting chimeric gene was subcloned into the copper inducible pMT/V5-His A vector (Invitrogen) and into the constitutive pAc vector. Similar methods yielded fusion constructs between G4 DBD and murine RORα (amino acids 142 to end), Drosophila DHR3 (amino acids 120 to end), C. elegans Daf12 (amino acids 184 to end), and herpes simplex virus VP16 (amino acids 413 to end). Coding sequences for firefly luciferase (Promega) were PCR amplified and subcloned into the pUAST vector containing five Gal4 binding enhancer sequences. The Renilla luciferase construct under a pol III promoter and the pAc vector were obtained from R. Dasgupta (NYU School of Medicine). […]
# [3] = target: T2, mouse RORγt (Mus musculus, UniProt P51450); assay: Drosophila S2 cell RORγt luciferase reporter; type: cell-based
# T2 construct: mouse RORγt (amino acids 79 to the carboxyl terminal end); expressed in transfected cells
# T2 sequence (P51450 79-495 isoform P51450-2): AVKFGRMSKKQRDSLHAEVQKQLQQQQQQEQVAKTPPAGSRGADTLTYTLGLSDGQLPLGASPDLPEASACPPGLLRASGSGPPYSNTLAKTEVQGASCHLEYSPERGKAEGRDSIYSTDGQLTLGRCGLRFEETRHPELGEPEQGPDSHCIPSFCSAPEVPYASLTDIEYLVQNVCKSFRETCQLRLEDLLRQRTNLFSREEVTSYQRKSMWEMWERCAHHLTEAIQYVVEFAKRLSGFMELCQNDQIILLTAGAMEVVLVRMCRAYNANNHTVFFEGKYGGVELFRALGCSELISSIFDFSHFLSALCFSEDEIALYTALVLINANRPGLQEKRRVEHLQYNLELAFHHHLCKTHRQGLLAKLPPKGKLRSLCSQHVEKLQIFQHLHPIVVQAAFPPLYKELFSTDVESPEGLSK
# Excerpt: The Drosophila S2 cell line was originally purchased from Invitrogen and was maintained in Schneider's medium supplemented with 10% heat-inactivated bovine fetal calf serum and antibiotics (Invitrogen). […] The resulting chimeric gene was subcloned into the copper inducible pMT/V5-His A vector (Invitrogen). […] Coding sequences for firefly luciferase (Promega) were PCR amplified and subcloned into pUAST vector containing Gal4 binding enhancer sequences. Renilla luciferase construct under the polIII promoter was obtained from Dr. Dasgupta's laboratory (NYU medical center). In order to generate stable cell lines, cells were co-transfected with pMT-G4 DBD-RORγt, pMT-G4 DBD-RORα, pMT-G4 DBD-DHR3, or pMT-G4 DBDVP16 and pHygro plasmids (Invitrogen) and screened for resistant colonies in the presence of hygromycin (0.3 mg/mL). […] Using similar methods, stable clones with genomic integration of the luciferase reporters and other reporters were generated such as pMT-RORα_luc, pMT-DHR3_Luc, or pMT-VP16_luc.
# The following representative compounds are tested for their RORγt inhibitory activity and toxicity.
# Promega Dual-Glo system is widely used for HTS as the luciferase substrates. Cell culture medium was reduced to the final volume of 10 μl or less and 10 μl of Dual-glo and 10 μl of Stop-glo luciferase substrates were added in a sequencial manner (Promega). Firefly and Renilla luciferase activity was determined by measuring luminescence signals using an automated 384-well plate reader equipped with multiple stack units (such as the Analyst GT or Envision plate readers).
# 10,000 Drosophila stable S2 cells with genomic integration of the Cu2+-inducible G4 DBD-mouse RORγ construct were transfected with 5 ng of pUASTfirefly luciferase and 7 ng of Pol III-Renilla luciferase and dispensed into white bottom-tissue culture 384-well plates (Corning). […] The following morning, Stop-glo luciferase substrates (Promega) were used to measure luciferase activity.
# The Drosophila S2 cell line was originally purchased from Invitrogen and was maintained in Schneider's Drosophila medium supplemented with 10% heat-inactivated bovine fetal calf serum and 1× antibiotic-antimycotic solution (Invitrogen). […] The resulting chimeric gene was subcloned into the copper inducible pMT/V5-His A vector (Invitrogen) and into the constitutive pAc vector. […] Coding sequences for firefly luciferase (Promega) were PCR amplified and subcloned into the pUAST vector containing five Gal4 binding enhancer sequences. The Renilla luciferase construct under a pol III promoter and the pAc vector were obtained from R. Dasgupta (NYU School of Medicine). To generate cell lines stably expressing various chimeric proteins upon copper addition, S2 cells were co-transfected with pMT plasmids encoding individual G4 DBD chimeric constructs and the pCoHygro plasmid (Invitrogen), before screening for resistant colonies in the presence of hygromycin (0.3 mg/mL). […] The human androgen receptor (hAR) expression plasmid pMK33-hAR and its reporter TAT3-Luc were obtained from M. Garabedian (NYU School of Medicine). […] R1881 (10 nM) and Dafachronic acid (10 μM) were used as ligands for hAR and Daf12. Upon treatment of cells with copper, in 384 well plates, there was specific increase in firefly luciferase activity versus normalized Renilla luciferase activity for all cell lines described above, validating the method for high-throughput screen.
# Transfections of firefly and Renilla reporter constructs were performed using the Effectene kit from Qiagen according to the manufacturer's protocol with some modifications.
# T1 sequence (G5EFF5 184-753 limits assumed): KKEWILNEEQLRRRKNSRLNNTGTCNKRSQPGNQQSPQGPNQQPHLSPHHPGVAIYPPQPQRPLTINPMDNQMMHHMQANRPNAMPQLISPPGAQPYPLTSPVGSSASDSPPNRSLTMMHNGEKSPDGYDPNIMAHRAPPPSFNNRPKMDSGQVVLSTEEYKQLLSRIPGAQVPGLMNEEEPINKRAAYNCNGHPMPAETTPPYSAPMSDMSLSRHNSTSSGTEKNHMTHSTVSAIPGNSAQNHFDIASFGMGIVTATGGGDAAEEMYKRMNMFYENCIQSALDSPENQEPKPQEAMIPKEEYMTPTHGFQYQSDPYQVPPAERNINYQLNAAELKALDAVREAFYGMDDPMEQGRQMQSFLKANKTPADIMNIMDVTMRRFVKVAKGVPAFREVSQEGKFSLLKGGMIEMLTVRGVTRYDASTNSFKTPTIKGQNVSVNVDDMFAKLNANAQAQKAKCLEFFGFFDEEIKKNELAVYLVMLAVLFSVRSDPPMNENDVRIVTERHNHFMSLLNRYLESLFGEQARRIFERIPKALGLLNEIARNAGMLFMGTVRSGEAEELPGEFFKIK
SMILES,sensitivity of mutant RORγ to inhibition [1],inhibition of C. elegans Daf12 activity [2],"IC50 ([3]; S2 cell RORγt reporter, read-out: IC50) [µM]","IC50 ([3]; read-out: IC50 (half-maximal inhibitory concentration), RORγ transcriptional activity) [µM]",IC50 [3] [µM],effect on RORγ transcriptional activity [3]
C[C@H]1O[C@@H](O[C@H]2[C@@H](O)C[C@H](O[C@H]3[C@@H](O)C[C@H](O[C@H]4CC[C@@]5(C)[C@H](CC[C@@H]6[C@@H]5C[C@@H](O)[C@]5(C)[C@@H](C7=CC(=O)OC7)CC[C@]65O)C4)O[C@@H]3C)O[C@@H]2C)C[C@H](O)[C@@H]1O [Digoxin],much less sensitivity,did not inhibit,1 to 10,1.98,–,–
"CC1O[C@@H](OC2C(C)O[C@H](OC3C(C)O[C@@H](O[C@H]4CC[C@@]5(C)[C@H](CC[C@@H]6[C@@H]5C[C@@H](O)[C@]5(C)[C@@H](C(CO)CCO)CC[C@]65O)C4)C[C@H]3O)C[C@H]2O)C[C@@H](O)C1O (stereo partly drawn) [Compound 13, 20,22-Dihydrodigoxin-21,23-diol]",–,–,–,–,11 to 20,still possessed RORγ inhibitory activity
